Results from patent US10328051B2, “Proline or proline derivatives for the treatment of dementia” (priority 2014, dated 2019).
“Also recorded” adds a separate entry of the source.

Experiments:
Type in all cases: in vivo, human
[1] = system: Alpha Glutathione S-Transferase (α-GST); assay: Measurement of α-Glutathione-S-Transferase following multiple dose administration of CHP (Study 0202-71); details: healthy volunteers
Text: Example 6—Measurement of α-Glutathione-S-Transferase Following Multiple Dose Administration of CHP (Study 0202-71)—(FIG. 7)
Study title: Measurement of α-Glutathione-S-Transferase following multiple dose administration of CHP (Study 0202-71)
12 healthy Caucasian males were recruited (age: 18-45 years). Multiple doses of CHP were orally administered: • 4×2.0 g CHP per day, for 14 consecutive days (total daily dose=8.0 g CHP) • 4×3.0 g CHP per day, for 14 consecutive days (total daily dose=12.0 g CHP)
To determine the effect of CHP on the blood concentration of Alpha Glutathione S-Transferase (α-GST) following the administration of: • 4×2.0 g CHP per day, for 14 consecutive days (total daily dose=8.0 g CHP) • 4×3.0 g CHP per day, for 14 consecutive days (total daily dose=12.0 g CHP)
The P-value obtained was 0.0017, indicating a 99.8% that the decreased observed was not the result of chance. A one-sample two-sided t-test was used, using the data from day 0-day 17.

Collagen IV = assay: Measurement of Collagen-IV following multiple dose administration of CHP (Study 0202-71); details: healthy volunteers, multiple oral doses of CHP for 14 days; P-value 0.0016 (t-test), 0.0047 (Wilcoxon-test)
Text: Example 7—Study Title: Measurement of Collagen-IV Following Multiple Dose Administration of CHP-Study 0202-71—(FIG. 8)
Using a one-sample two-sided t-test, a P-value of 0.0016 was obtained, indicating a 99.8% that the decreased observed was not the result of chance. Using a one-sample two-sided Wilcoxon-test, a P-value of 0.0047 was obtained, indicating a 99.5% that the decreased observed was not the result of chance.

[2] = Pre-dose endogenous plasma concentrations of CHP and THP in healthy volunteers (Study 0202-71), HPLC; details: healthy subjects
Description: Example 8—Study Title: Determination of Pre-Dose Endogenous Concentrations of CHP in Healthy Volunteers (Study 0202 71) (FIG. 11)
According to the examples in this invention, the following ICH-GCP Clinical Phase I study has been performed in healthy subjects for the assessment of the pharmacokinetic profiles of CHP and THP and the determination of the pre-dose endogenous CHP blood plasma concentrations, which were measured for all healthy volunteers directly before CHP administration using a validated, sensitive and selective HPLC bioanalytical method.
Example 9—Study Title: Determination of Pre-Dose Endogenous Concentrations of THP in Healthy Volunteers (Study 0202 71)—(FIG. 11)
According to the examples in this invention, the following ICH-GCP Clinical Phase I study has been performed in healthy volunteers for the assessment of the pharmacokinetic profiles of THP and to determine the pre-dose endogenous THP plasma concentrations, which were measured for all healthy volunteers directly before CHP administration using a validated, sensitive and selective HPLC bioanalytical method. This was performed before both CHP administrations (i.e. for 2.0 g and 3.0 g). • The mean endogenous THP concentration in healthy subjects, calculated across all dose groups, was 0.97±1.15 μg CHP/ml of plasma.

[3] = system: patients with mild or moderate Alzheimer's disease and Dementia; assay: Physical and cognitive conditions and Quality of Life questionnaire in patients with mild and moderate Alzheimer's disease (Example 13)
Text: Example 13—Physical, and Cognitive Conditions—Alzheimer—Dementia Measure and Quality of Life (QoL) (FIGS. 13.1, 13.2, 13.3)
According to the ICH-GCP requirements for assessment of the Quality of Life (QoL) the validated questionnaire related to the disease e.g. cancer have been administered in the Phase II clinical studies: IPSS-A04, according to the example 12.1 in this invention.
Additional developed modules to these questionnaire provided greater details on the particular aspects of quality of life for those patients who participated in these clinical studies and diagnosed with mild and moderate Alzheimer's disease based on the presence of neuropsychiatric symptoms.
Diagnosis begun with a thorough physical exam and complete medical history including cerebrovascular disease and supplemental information from family members. Simple tests of mental function, including word recall, object naming, and number symbol marching, were used to track changes in the patient's cognitive ability. Ruling out depression was part of the diagnosis. Eight (8) patients over the age of 65 years met these criteria and have been selected for the assessment of CHP effects on the quality of life according to the items mentioned below including the cognitive status.
The administration of intravenous (iv) and oral CHP as monotherapy has been scheduled according to examples 12.1 in this invention in the patient's group G2—in study IPSS-A04.
The assessment of the QoL, physical, and cognitive conditions—Alzheimer-Dementia has been completed by the patients/care providers in the following intervals (FIGS. 13.1-13.3):
Pre-dose: Prior to the start of treatment with CHP as monotherapy
Start and completion of treatment with CHP: The questionnaire has been completed every 4 weeks after the start of treatment (Week 4, 8, 12, 16, 20, 24) and 4 weeks upon the completion of the treatment with CHP as monotherapy. A scale value is given for each response that reflects a good quality of life. […] A higher score reflects a higher quality of life. The 5 domains of Quality of Life—Alzheimer's Disease-Dementia included are: 1. Enjoyment of activities, 2. Feelings and mood, 3. Awareness of self, 4. Social Interactions, 5. Illness global QoL.
The following modified QLQ-C30 Version 1.0 has been used for the recording and assessment of the patient's conditions prior to and after the treatment with CHP.

[4] = after completion of treatment, 8 patients, pre dose 0
[5] = after completion of treatment, 8 patients, pre dose 3
[6] = after completion of treatment, 8 patients, pre-dose 0

Question: For `O=C(O)[C@@H]1C[C@H](O)CN1` [CHP, cis-4-hydroxy-L-proline], which Liver cell damage ([1]; multiple oral doses of CHP for 14 days) is on record?
Answer: no effect of liver cell damage

Question: What about the “α-GST levels in blood” value ([1]; oral 4×2.0 g or 4×3.0 g CHP per day for 14 days, P-value 0.0017, one-sample two-sided t-test, day 0-day 17) of the same compound?
Answer: inhibits significantly; also recorded: highly significant

Question: What about the “Collagen IV levels in blood” value (Collagen IV) of the same compound?
Answer: inhibits significantly

Question: And the “Average Cmax, molar equivalent in blood” value ([2]; Study 0202-71)?
Answer: 462.2±212.1 μM CHP/ml blood

Question: What about the “Average Cmax” value ([2]; Study 0202-71, after CHP administration) of the same compound?
Answer: 30.29±13.91 μg CHP/ml plasma

Question: And the “Overall Physical Condition: number of patients rating 5” value [3, 4]?
Answer: 5

Question: What about the “Overall Physical Condition: number of patients rating 6” value [3, 4] of the same compound?
Answer: 1

Question: And the “Overall Physical Condition: number of patients rating 7” value [3, 4]?
Answer: 0

Question: And the “Overall Quality of Life (QoL): number of patients rating 4” value [3, 4]?
Answer: 3

Question: And the “Overall Quality of Life (QoL): number of patients rating 5” value [3, 4]?
Answer: 3

Question: And the “Overall Quality of Life (QoL): number of patients rating 6” value [3, 4]?
Answer: 2

Question: And the “Overall Quality of Life (QoL): number of patients rating 7” value [3, 4]?
Answer: 0

Question: And the “Overall Physical Condition: number of patients rating 3” value [3, 5]?
Answer: 1

Question: What about the “Overall Physical Condition: number of patients rating 4” value [3, 5] of the same compound?
Answer: 1

Question: And the “Overall Quality of Life (QoL): number of patients rating 3” value [3, 5]?
Answer: 0

Question: And the “Overall Cognitive Conditions: number of patients rating 5” value [3, 6]?
Answer: 3

Question: What about the “Overall Cognitive Conditions: number of patients rating 6” value [3, 6] of the same compound?
Answer: 1

Question: And the “Overall Cognitive Conditions: number of patients rating 7” value [3, 6]?
Answer: 0

Question: And the “Overall Cognitive Conditions: number of patients rating 4” value ([3]; after completion of treatment, 8 patients, pre-dose 1)?
Answer: 3

Question: What about the “Overall Cognitive Conditions: number of patients rating 3” value ([3]; after completion of treatment, 8 patients, pre-dose 3) of the same compound?
Answer: 1

Question: And the “Overall Physical Condition: number of patients rating 2” value ([3]; after completion of treatment, scale 1 = Very poor 7 = Excellent, 8 patients, pre dose 2)?
Answer: 0

Question: And the “Overall Quality of Life (QoL): number of patients rating 2” value ([3]; after completion of treatment, scale 1 = Very poor 7 = Excellent, 8 patients, pre dose 5)?
Answer: 0

Question: And the “Overall Cognitive Conditions: number of patients rating 2” value ([3]; after completion of treatment, scale 1 = Very poor 7 = Excellent, 8 patients, pre-dose 4)?
Answer: 0

Question: And the “Cognitive, physical, emotional conditions and quality of life in comparison to status prior to the start of the treatment” value ([3]; oral and/or intravenous CHP monotherapy, 90-540 consecutive days, 2-12 gram per day, mild or moderate Alzheimer's disease and dementia)?
Answer: significant improvement

Question: And the Adverse events ([3]; patients with mild or moderate Alzheimer's disease)?
Answer: Only mild adverse events
